Patent US20190328691A1, “ANTIBIOTIC THERAPY” (Boulos & Cooper Pharmaceuticals Pty Ltd, priority 2015, published 2019)
Several values for one entry are separate records, joined by “and”; a condition that tells them apart may be missing. Equal values may be shown once. Read-outs that look alike come from different tables or passages of the source.

What was measured:
[1] = tested on: Staphylococcus aureus (BAA-1717); assay: Checkerboard combination / MIC assay with S. aureus BAA-1717 (MRSA); type: cell-based
Experimental: (§1) Colonies were suspended in PBS. The absorbance of each suspension was measured with a spectrophotometer, and then the suspension was adjusted to 1×10^6 CFU/mL. The testing inoculum was prepared within 20 minutes before adding to wells of the test plate. Final cellular density in the checkerboard assays was 5×10^5 CFU/mL.
(§2) The combination effect of antibacterial substances administered together was evaluated by an in vitro checkerboard combination method with Staphylococcus aureus (ATCC 29213) and Staphylococcus aureus (BAA-1717). Ramizol and Chlopam were tested alone in 11 points by two-fold serial titration and in combination with different commercial antibiotics which were tested in a 7-point titration alone and in combination with Ramizol and Chlopam using the checkerboard technique as recommended by the Clinical & Laboratory Standards Institute (CLSI. Methods for Dilution In Antimicrobial Susceptibility Tests for Bacteria That Grow Aerobically; Approved Standard-Eighth Edition. CLSI document M07-A8 (ISBN 1-56238-689-1). Vol. 29 No. 2. Clinical and Laboratory Standards Institute, USA, 2009). The commercial antibiotics were also tested alone. Twenty-four checkerboard tests were performed.
(§3) The starting concentration of Ramizol, Chlopam, and the commercial antibiotics was four fold of the MIC. The testing range for each combination was described in the following summary tables.
(§4) Compound dilutions of Ramizol and Chlopam were performed in 100% DMSO and the final DMSO concentration in all test wells was 2%. Growth control wells also included 2% DMSO. CLSI protocol was followed for medium, inoculum preparation, and endpoint reading. The commercial antibiotics were dissolved and diluted in the CLSI specified diluent. The final inoculum count for each strain was 5×10^5 CFU/mL.
Each test substance was dissolved and diluted in 100% DMSO or specified solvent. Each test substance dilution (2 μL) was added to 96 μL broth CAMHB. CAMHB seeded with S. aureus BAA-1717 at 1×10^6 CFU/mL (100 μL) was then added to the plate to generate a final cell count at 5×10^5 CFU/mL.
(§5) Assay plates were incubated and MIC endpoints were read as described in the MIC assay. FIC (Fraction Inhibitory Concentration) and FIC Index (FICI) values for each test condition and the average of FICI values of all pairwise combinations were calculated to determine if synergy or antagonism existed between the two substances. The FIC index was determined by calculating the sum of the ratios of MICs for both substances. Arithmetically, the FIC Index of a combination of Substance 1 and Substance 2 was defined as following: FICI=Σ[FIC(Substance 1)+FIC(Substance 2)]=[(MIC of Substance 1 in combination/MIC of Substance 1 alone)+(MIC of Substance 2 in combination/MIC of Substance 2 alone)]. Synergy is defined as the FICI (Σ)≤0.5; additivity as FICI (Σ)>0.5 to ≤1; indifference as FICI (Σ)>1 to ≤4; antagonism is defined as the FICI (Σ)>4 (Zinner and Blaser, J. Journal of Antimicrobial Chemotherapy (1986), 17, 1-5; Amin, et al BMC Complementary & Alternative Medicine (2015), 15, 59; Zuo, et al. Molecules (2011), 16, 9819-9826).

[2] = tested on: Staphylococcus aureus (ATCC 29213); assay: Checkerboard combination / MIC assay with S. aureus ATCC 29213; type: cell-based; conditions: S. aureus ATCC 29213; for MIC: Staphylococcus aureus, read-out: MIC of antibiotic alone
Experimental: as §1, §2, §3, §4
Cefepime, Daptomycin, Linezolid, Mupirocin, Oxacillin and Vancomycin were also tested alone. Each test substance was dissolved and diluted in 100% DMSO or specified solvent. Each test substance dilution (2 μL) was added to 96 μL broth CAMHB. CAMHB seeded with S. aureus ATCC 29213 at 1×10^6 CFU/mL (100 μL) was then added to the plate to generate a final cell count at 5×10^5 CFU/mL.
as §5

CO/N=C(\C(=O)N[C@@H]1C(=O)N2C(C(=O)[O-])=C(C[N+]3(C)CCCC3)CS[C@H]12)c1csc(N)n1 [Cefepime]
additive effect: Effect of the combinations with Chlopam (by mean FICI) ([1]; labelled antibiotic + Chlopam, S. aureus BAA-1717) | Effect of the combinations with Ramizol (by mean FICI) ([1]; labelled antibiotic + Ramizol, S. aureus BAA-1717) | Effect of the combinations with Ramizol (by mean FICI) ([2]; labelled antibiotic + Ramizol)
synergistic effect: Effect of individual antibiotic combinations of lower concentrations ([1]; Chlopam and Cefepime: 0.25 and 64, 0.25 and 32, 0.25 and 16, 0.50 and 8 μg/mL, S. aureus ATCC BAA-1717) | Effect of individual antibiotic combinations of lower concentrations ([1]; Ramizol and Cefepime: 0.125 and 128, 1 and 64, 2 and 8 μg/mL, S. aureus ATCC BAA-1717)
256 µg/mL: MIC of antibiotic in combination with Chlopam ([1]; Chlopam 0.001953 μg/mL, S. aureus ATCC BAA-1717) | MIC of antibiotic in combination with Chlopam ([1]; Chlopam 0.003906 μg/mL, S. aureus ATCC BAA-1717) | MIC of antibiotic in combination with Chlopam ([1]; Chlopam 0.0078125 μg/mL, S. aureus ATCC BAA-1717) | MIC of antibiotic in combination with Chlopam ([1]; Chlopam 0.015625 μg/mL, S. aureus ATCC BAA-1717) | MIC of antibiotic in combination with Chlopam ([1]; Chlopam 0.03125 μg/mL, S. aureus ATCC BAA-1717) | MIC of antibiotic in combination with Ramizol ([1]; Ramizol 0.015625 μg/mL, S. aureus ATCC BAA-1717) | MIC of antibiotic in combination with Ramizol ([1]; Ramizol 0.03125 μg/mL, S. aureus ATCC BAA-1717) | MIC of antibiotic in combination with Ramizol ([1]; Ramizol 0.0625 μg/mL, S. aureus ATCC BAA-1717) | MIC ([1]; Staphylococcus aureus, ATCC BAA-1717 / BAA-1717, Table 4, checkerboard series with Chlopam, S. aureus ATCC BAA-1717, read-out: MIC of antibiotic alone) | MIC of antibiotic alone ([1]; Table 7, checkerboard series with Ramizol, S. aureus ATCC BAA-1717)
1.1: mean FICI of combination with Chlopam ([2]; labelled antibiotic + Chlopam, mean of all pairwise combinations)
128 µg/mL: MIC of antibiotic in combination with Chlopam ([1]; Chlopam 0.125 μg/mL, S. aureus ATCC BAA-1717) | MIC of antibiotic in combination with Ramizol ([1]; Ramizol 0.125 μg/mL, S. aureus ATCC BAA-1717) | MIC of antibiotic in combination with Ramizol ([1]; Ramizol 0.25 μg/mL, S. aureus ATCC BAA-1717) | MIC of antibiotic in combination with Ramizol ([1]; Ramizol 0.5 μg/mL, S. aureus ATCC BAA-1717)
4 µg/mL: MIC of antibiotic in combination with Chlopam ([2]; Chlopam 0.003906 μg/mL) | MIC of antibiotic in combination with Chlopam ([2]; Chlopam 0.0078125 μg/mL) | MIC of antibiotic in combination with Chlopam ([2]; Chlopam 0.015625 μg/mL) | MIC of antibiotic in combination with Ramizol ([2]; Ramizol 0.015625 μg/mL) | MIC of antibiotic in combination with Ramizol ([2]; Ramizol 0.03125 μg/mL) | MIC of antibiotic in combination with Ramizol ([2]; Ramizol 0.0625 μg/mL) | MIC of antibiotic in combination with Ramizol ([2]; Ramizol 0.125 μg/mL) | MIC ([2]; ATCC29213, Table 4, checkerboard series with Chlopam) | MIC ([2]; ATCC29213, Table 7, checkerboard series with Ramizol)
64 µg/mL: MIC of antibiotic in combination with Ramizol ([1]; Ramizol 1 μg/mL, S. aureus ATCC BAA-1717)
0.8: mean FICI of combination with Chlopam ([1]; labelled antibiotic + Chlopam, mean of all pairwise combinations, S. aureus ATCC BAA-1717) | FICI of combination with Ramizol ([2]; Ramizol 1 μg/mL + labelled antibiotic at MIC of same cell) | FICI of combination with Ramizol ([2]; Ramizol 2 μg/mL + labelled antibiotic at MIC of same cell)
0.6: FICI of combination with Chlopam ([1]; Chlopam 0.125 μg/mL + labelled antibiotic at MIC of same cell, S. aureus ATCC BAA-1717) | FICI of combination with Ramizol ([1]; Ramizol 0.25 μg/mL + labelled antibiotic at MIC of same cell, S. aureus ATCC BAA-1717) | FICI of combination with Ramizol ([1]; Ramizol 0.5 μg/mL + labelled antibiotic at MIC of same cell, S. aureus ATCC BAA-1717)
0.5: FICI of combination with Chlopam ([1]; Chlopam 0.5 μg/mL + labelled antibiotic at MIC of same line, S. aureus ATCC BAA-1717) | FICI of combination with Ramizol ([1]; Ramizol 0.125 μg/mL + labelled antibiotic at MIC of same line, S. aureus ATCC BAA-1717) | FICI of combination with Ramizol ([1]; Ramizol 1 μg/mL + labelled antibiotic at MIC of same line, S. aureus ATCC BAA-1717)
2 µg/mL: MIC of antibiotic in combination with Chlopam ([2]; Chlopam 0.25 μg/mL) | MIC of antibiotic in combination with Ramizol ([2]; Ramizol 1 μg/mL)
1.0: FICI of combination with Chlopam ([1]; Chlopam 0.001953 μg/mL + labelled antibiotic at MIC of same cell, S. aureus ATCC BAA-1717) | FICI of combination with Chlopam ([1]; Chlopam 0.003906 μg/mL + labelled antibiotic at MIC of same cell, S. aureus ATCC BAA-1717) | FICI of combination with Chlopam ([1]; Chlopam 0.0078125 μg/mL + labelled antibiotic at MIC of same cell, S. aureus ATCC BAA-1717) | FICI of combination with Chlopam ([1]; Chlopam 0.015625 μg/mL + labelled antibiotic at MIC of same cell, S. aureus ATCC BAA-1717) | FICI of combination with Chlopam ([1]; Chlopam 0.03125 μg/mL + labelled antibiotic at MIC of same cell, S. aureus ATCC BAA-1717) | FICI of combination with Ramizol ([1]; Ramizol 0.015625 μg/mL + labelled antibiotic at MIC of same cell, S. aureus ATCC BAA-1717) | FICI of combination with Ramizol ([1]; Ramizol 0.03125 μg/mL + labelled antibiotic at MIC of same cell, S. aureus ATCC BAA-1717) | FICI of combination with Ramizol ([1]; Ramizol 0.0625 μg/mL + labelled antibiotic at MIC of same cell, S. aureus ATCC BAA-1717) | FICI of combination with Chlopam ([2]; Chlopam 0.003906 μg/mL + labelled antibiotic at MIC of same cell) | FICI of combination with Chlopam ([2]; Chlopam 0.0078125 μg/mL + labelled antibiotic at MIC of same cell) | FICI of combination with Chlopam ([2]; Chlopam 0.015625 μg/mL + labelled antibiotic at MIC of same cell) | FICI of combination with Chlopam ([2]; Chlopam 0.25 μg/mL + labelled antibiotic at MIC of same cell) | FICI of combination with Chlopam ([2]; Chlopam 0.5 μg/mL + labelled antibiotic at MIC of same cell) | FICI of combination with Ramizol ([2]; Ramizol 0.015625 μg/mL + labelled antibiotic at MIC of same cell) | FICI of combination with Ramizol ([2]; Ramizol 0.03125 μg/mL + labelled antibiotic at MIC of same cell) | FICI of combination with Ramizol ([2]; Ramizol 0.0625 μg/mL + labelled antibiotic at MIC of same cell) | FICI of combination with Ramizol ([2]; Ramizol 0.125 μg/mL + labelled antibiotic at MIC of same cell) | FICI of combination with Ramizol ([2]; Ramizol 4 μg/mL + labelled antibiotic at MIC of same cell) | mean FICI of combination with Ramizol ([2]; labelled antibiotic + Ramizol, mean of all pairwise combinations)
1 µg/mL: MIC of antibiotic in combination with Ramizol ([2]; Ramizol 2 μg/mL)
0.5 and 0.6: FICI of combination with Ramizol ([1]; Ramizol 2 μg/mL + labelled antibiotic at MIC of same line, S. aureus ATCC BAA-1717)
0.125 µg/mL: MIC of antibiotic in combination with Chlopam ([2]; Chlopam 0.5 μg/mL) | MIC of antibiotic in combination with Ramizol ([2]; Ramizol 4 μg/mL)
0.696: mean FICI of combination with Ramizol ([1]; labelled antibiotic + Ramizol, mean of all pairwise combinations, S. aureus ATCC BAA-1717)
8 µg/mL: MIC of antibiotic in combination with Chlopam ([1]; Chlopam 0.5 μg/mL, S. aureus ATCC BAA-1717)
